# Where two headings read alike, the source gives them in different places.
# Columns and labels:
# HCT-116 cells = test: HCT-116 Cell Proliferation Assay; assay type: cell-based; settings: Table 2, read-out: Inhibition of cell proliferation in HCT-116 (IC50 class)
# Outline: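 IC50 values come from resazurin fluorescence (540 nm excitation, 600 nm emission) added for 4 to 5 h after compound treatment. Treatment: serially diluted compound in triplicate on 375 HCT-116 cells per well in complete McCoy's 5A/10% FBS, 67 to 72 hours, 37 °C, 5% CO2.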
# [1] = biological target: T1, B-Raf kinase (SEQ ID NO: 1) (Homo sapiens, UniProt P15056); test: Biochemical Assay for B-Raf (coupled pyruvate kinase/lactate dehydrogenase assay); settings: 1 mM ATP; read-out: BRAF (inhibition of biochemical activity, IC50)
# T1 construct: GST (N); purchased Sigma
# T1 sequence (P15056 416-766): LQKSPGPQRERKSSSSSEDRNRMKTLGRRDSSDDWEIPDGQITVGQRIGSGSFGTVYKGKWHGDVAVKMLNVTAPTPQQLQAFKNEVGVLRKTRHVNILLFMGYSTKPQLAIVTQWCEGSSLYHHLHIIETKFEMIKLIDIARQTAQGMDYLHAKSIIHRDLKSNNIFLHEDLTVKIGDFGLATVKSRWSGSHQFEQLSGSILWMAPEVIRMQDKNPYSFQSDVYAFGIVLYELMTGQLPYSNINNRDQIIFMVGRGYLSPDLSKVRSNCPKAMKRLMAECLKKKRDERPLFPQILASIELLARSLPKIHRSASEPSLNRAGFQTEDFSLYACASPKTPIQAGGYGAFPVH
# Pa16c cells = test: Pa16c Cell Proliferation Assay; assay type: cell-based; settings: Table 2, read-out: Inhibition of cell proliferation in Pa16c (IC50 class)
# Outline: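 Proliferation read-out: resazurin fluorescence (540 nm excitation, 600 nm emission) after an extra 18 to 24 h. Before that, compound dilution series (triplicate) stayed on 750 Pa16c cells/well in complete DMEM/10% FBS for 67 to 72 h at 37° C. IC50 values derived from the curves.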
# [2] = biological target: T2, C-Raf kinase (SEQ ID NO: 2) (Homo sapiens, UniProt P04049, Y340D/Y341D); test: Biochemical Assay for C-Raf (coupled pyruvate kinase/lactate dehydrogenase assay); settings: 1 mM ATP; read-out: CRAF (inhibition of biochemical activity, IC50)
# T2 construct: C-Raf residues 306-end; Y340D, Y341D with; GST (N); purchased Sigma
# T2 sequence (P04049 307-648 Y340D/Y341D): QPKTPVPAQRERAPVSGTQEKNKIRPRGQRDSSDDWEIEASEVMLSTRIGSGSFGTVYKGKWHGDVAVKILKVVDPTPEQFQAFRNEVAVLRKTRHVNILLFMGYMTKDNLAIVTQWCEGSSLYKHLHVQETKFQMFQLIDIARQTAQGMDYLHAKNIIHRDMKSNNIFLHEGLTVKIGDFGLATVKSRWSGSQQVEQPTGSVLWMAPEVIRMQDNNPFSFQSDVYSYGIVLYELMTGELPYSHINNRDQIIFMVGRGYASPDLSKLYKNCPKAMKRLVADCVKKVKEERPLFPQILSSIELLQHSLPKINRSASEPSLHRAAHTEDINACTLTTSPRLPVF
# HPAF-II cells = test: HPAF-II Cell Proliferation Assay; assay type: cell-based; settings: HPAF-II cells, Table 2, read-out: Inhibition of cell proliferation in HPAF-II (IC50 class)
# Outline: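 Viability read-out was resazurin fluorescence (540 nm excitation, 600 nm emission), developed 18–24 h after a 115–120 h compound exposure of 750 HPAF-II cells per well in MEM/10% FBS at 37 °C. Compound was tested as a serial dilution in triplicate, and IC50 values were calculated.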
# MiaPaca-2 cells = test: MiaPaca-2 Cell Proliferation Assay; assay type: cell-based; settings: Table 2, read-out: Inhibition of cell proliferation in MiaPaca-2 (IC50 class)
# Outline: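 Viability was read as resazurin fluorescence (540 nm excitation, 600 nm emission) after 5–6 h with dye. Compounds were tested as serial dilutions in triplicate, with IC50 derived from the dose–response.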
# [3] = Homo sapiens, HCT-116, HCT-116 cells
# [4] = Homo sapiens, MIA PaCa-2, MiaPaca-2 cells
Structure (SMILES),IC50 (HCT-116 cells; HCT-116 cells) [nM],IC50 [1] [nM],IC50 [2] [nM],IC50 (MiaPaca-2 cells; MiaPaca-2 cells) [nM],IC50 (HCT-116 cells; [3]) [nM],IC50 (MiaPaca-2 cells; [4]) [nM],IC50 (Pa16c cells) [nM],IC50 (HPAF-II cells) [nM],"IC50 (HPAF-II cells; Homo sapiens, HPAF-II) [nM]"
Cc1ccc(NC(=O)c2cc(C(F)(F)F)cnn2)cc1-c1ccnc(-c2ccnc(NC(=O)CC3(C)CC3)c2)c1 [Example 90],,100 to 500,100 to 500,,100 to 500,100 to 500,1000 to 10000,,100 to 500
Cc1ccc(NC(=O)c2cc(C(F)(F)F)cnn2)cc1-c1ccnc(-c2ccnc(NC(=O)C3(C)CC3)c2)c1 [Example 41],,100 to 500,< 100,,100 to 500,100 to 500,< 100,,1000 to 10000
Cc1ccc(NC(=O)c2cc(C3CC3)cnn2)cc1-c1ccnc(-c2ccoc2)c1 [Example 147],,100 to 500,100 to 500,,100 to 500,100 to 500,100 to 500,,100 to 500
Cc1ccc(NC(=O)c2cc(C#N)cnn2)cc1-c1cc(N[C@H](C)CO)nc(-c2ccnc(NC(=O)C3CC3)c2)c1 [Example 151],,500 to 1000,500 to 1000,,1000 to 10000,1000 to 10000,1000 to 10000,,1000 to 10000
Cc1ccc(NC(=O)c2cc(C(C)(F)F)cnn2)cc1-c1ccnc(-c2ccoc2)c1 [Example 149],,100 to 500,100 to 500,,100 to 500,100 to 500,100 to 500,,100 to 500
Cc1ccc(NC(=O)c2ccc(C(F)(F)F)nc2)cc1-c1cncc(-c2ccnc(NC(=O)C3CC3)c2)c1 [Example 72],,< 100,< 100,,100 to 500,500 to 1000,1000 to 10000,,500 to 1000
Cc1ccc(NC(=O)c2cc(C(F)(F)F)cnn2)cc1-c1ccnc(-c2ccnc(NCC(F)(F)F)c2)c1 [Example 53],,500 to 1000,500 to 1000,,100 to 500,100 to 500,1000 to 10000,,100 to 500
Cc1ccc(NC(=O)c2cc(C(F)(F)F)cnn2)cc1-c1cc(OCCO)nc(-c2ccnc(NC(=O)C3CC3)c2)c1 [Example 131],,< 100,< 100,,< 100,100 to 500,100 to 500,,100 to 500
Cc1ccc(NC(=O)c2cc(C(F)(F)F)cnn2)cc1-c1ccnc(-c2ccnc(NC(=O)CC3CC3)c2)c1 [Example 22],,100 to 500,< 100,,100 to 500,100 to 500,< 100,,< 100
"CC(=O)Nc1cc(-c2cc(-c3cc(NC(=O)c4ccc(C(F)F)nc4)ccc3C)ccn2)ccn1 [Example 1, N-(3-(2′-acetamido-[2,4′-bipyridin]-4-yl)-4-methylphenyl)-6-(difluoromethyl)nicotinamide]",,< 100,< 100,,< 100,< 100,< 100,,< 100
O=C(Nc1ccc(F)c(-c2ccnc(-c3ccnc(NC(=O)C4CC4)c3)c2)c1)c1cc(C(F)(F)F)cnn1 [Example 47],,< 100,< 100,,1000 to 10000,1000 to 10000,1000 to 10000,,1000 to 10000
CCNc1cc(-c2cc(-c3cc(NC(=O)c4cc(C(F)(F)F)cnn4)ccc3C)ccn2)ccn1 [Example 95],,100 to 500,100 to 500,,100 to 500,100 to 500,500 to 1000,,100 to 500
Cc1ccc(NC(=O)c2cc(C(C)(F)F)cnn2)cc1-c1ccnc(-c2cnn(C)n2)c1 [Example 140],,100 to 500,< 100,,100 to 500,100 to 500,1000 to 10000,,500 to 1000
O=C(Nc1cc(-c2ccnc(-c3ccnc(NC(=O)C4CC4)c3)c2)c(F)cc1F)c1cc(C(F)(F)F)cnn1 [Example 46],,< 100,< 100,,1000 to 10000,1000 to 10000,1000 to 10000,,1000 to 10000

# Second part, led by results:
IC50 (HCT-116 cells; HCT-116 cells) [nM],IC50 [1] [nM],IC50 [2] [nM],IC50 (MiaPaca-2 cells; MiaPaca-2 cells) [nM],IC50 (HCT-116 cells; [3]) [nM],IC50 (MiaPaca-2 cells; [4]) [nM],Structure (SMILES),IC50 (Pa16c cells) [nM],IC50 (HPAF-II cells) [nM],"IC50 (HPAF-II cells; Homo sapiens, HPAF-II) [nM]"
100 to 500,< 100,< 100,500 to 1000,,,CC(=O)Nc1cc(-c2cncc(-c3cc(NC(=O)c4cc(C(F)(F)F)cnn4)ccc3C)c2)ncn1 [Example 71],1000 to 10000,500 to 1000,
,< 100,< 100,,100 to 500,100 to 500,Cc1ccc(NC(=O)c2cc(C(F)(F)F)cnn2)cc1-c1ccnc(-c2ccnc(NC(=O)C3CCN(C)C3)c2)c1 (stereo not drawn) [Example 51],500 to 1000,,100 to 500
,< 100,< 100,,100 to 500,100 to 500,Cc1ccc(NC(=O)c2ccc(C(F)F)nc2)cc1-c1ccnc(-c2ccnc(NC(=O)C3CC3)c2)n1 [Example 70],1000 to 10000,,100 to 500
,< 100,< 100,,< 100,100 to 500,Cc1ccc(NC(=O)c2cc(C(C)(C)F)cnn2)cc1-c1cncc(-c2cc(NC(=O)C3CC3)ncn2)c1 [Example 62],500 to 1000,,< 100
,< 100,< 100,,100 to 500,100 to 500,Cc1ccc(NC(=O)c2cc(C(C)(F)F)cnn2)cc1-c1ccnc(-c2cncn2C)c1 [Example 138],100 to 500,,100 to 500
,< 100,< 100,,100 to 500,100 to 500,"Cc1ccc(NC(=O)c2cc(C(F)(F)F)cnn2)cc1-c1ccnc(-c2ccnc(NC(=O)C3CNCC3(F)F)c2)c1 (stereo not drawn) [Example 92, N-[3-[2-[2-[(4,4-difluoropyrrolidine-3-carbonyl)amino]-4-pyridyl]-4-pyridyl]-4-methyl-phenyl]-5-(trifluoromethyl)pyridazine-3-carboxamide]",500 to 1000,,500 to 1000
,< 100,< 100,,< 100,< 100,CC(=O)Nc1cc(-c2cc(-c3cc(NC(=O)c4ccc(C(F)(F)F)nc4)ccc3C)ccn2)ccn1 [Example 24],100 to 500,,< 100
,< 100,< 100,,< 100,100 to 500,Cc1ccc(NC(=O)c2cc(C3CC3)cnn2)cc1-c1cc(NCCO)nc(-c2ccnc(NC(=O)C3CC3)c2)c1 [Example 100],< 100,,100 to 500

# — US20260226084A1, “DUAL RAF AND TUBULIN INHIBITORS AND METHODS OF USE THEREOF” (Deciphera Pharmaceuticals, LLC, priority 2023, published 2026)
